Measured values published in ChEMBL document CHEMBL4265990, “Synthesis, anticancer activity and cytotoxicity of galactosylated epothilone B” (Bioorg Med Chem, 2018).

What was measured:
[1] = tested on: MCF7; experiment: Antiproliferative activity against human MCF7 cells at 0.01 to 100 nmol/L after 2 days by MTT assay; format: functional
[2] = tested on: MCF7; experiment: Antiproliferative activity against human MCF7 cells after 2 days by MTT assay; format: functional, cell-based; conditions: for IC50: MCF7, 48 h

SMILES	Activity [1]	IC50 [2]	Activity [2]
C/C(=C\c1csc(C)n1)[C@@H]1C[C@@H]2O[C@]2(C)CCC[C@H](C)[C@H](OC(=O)CO[C@@H]2O[C@H](CO)[C@H](O)[C@H](O)[C@H]2O)[C@@H](C)C(=O)C(C)(C)[C@@H](O)CC(=O)O1	7.9 - 98.6%	5730 nM	
C/C(=C\c1csc(C)n1)[C@@H]1C[C@@H]2O[C@]2(C)CCC[C@H](C)[C@H](O)[C@@H](C)C(=O)C(C)(C)[C@@H](O)CC(=O)O1 [PATUPILONE]	3 - 80.3%	38.2 nM	Dose-dependent effect
